Test results from patent US9045421B2, “Reagent and method for detection of carboxylic acids by mass spectrometry” (University of Washington, priority 2010, dated 2015).

Test system: primary human bronchial cells
Assay: Eicosanoid formation in calcium ionophore stimulated primary bronchial epithelial cells (LC/ESI-MSMS of AMPP amides)
Type: cell-based
Conditions: +Ca ionophore (A23187, 10 uM, 20 min, 37° C.); 0.47 million cells per sample
Experimental: The University of Washington Institutional Review Board approved the studies involving human subjects, and written informed consent was obtained from all participants. Primary bronchial epithelial cells were isolated from a volunteer with asthma during bronchoscopy using a nylon cytology brush of cells from subsegmental airways. To establish primary culture, the epithelial cells were seeded into a culture vessel coated with type 1 collagen in bronchial epithelial basal media (BEBM, Lonza, Allendale, N.J.) supplemented with bovine pituitary extract, insulin, hydrocortisone, gentamicin, amphotericin B, fluconazole, retinoic acid, transferrin, triiodothyronine, epinephrine, and human recombinant epidermal growth factor (serum-free BEGM) and maintained at 37° C. in a humidified incubator. After expansion in vitro, passage 2 epithelial cells were grown to >90% confluence on a 12-well plate. The medium was changed to Hanks balanced salt solution, and the cells were treated with either calcium ionophore (A23187, 10 uM) or a DMSO-containing control solution for 20 min at 37° C. In some studies, the cytosolic phospholipase A2-α inhibitor Pyr-2^6 was present at 5 uM, added from a stock solution in DMSO. The synthesis of eicosanoids was stopped by the addition of 4 volumes of ice methanol with 0.2% formic acid. […] The studies were performed in duplicate. Samples were processed for derivatization with AMPP and LC/ESI-MSMS as for the serum samples.

## CNc1ccc2oc(C[C@H]3O[C@@]4(CC[C@H]3C)O[C@H]([C@H](C)C(=O)c3ccc[nH]3)[C@H](C)C[C@H]4C)nc2c1C(=O)O [Ca ionophore]
  11(S)-HETE level: 3.7 pg
  15(S)-HETE level: 7.8 pg
  Arachidonic acid level: 242 pg
  PGD2 level: 4.4 pg
  PGE2 level: 39 pg
  PGF2α level: 60 pg
  TxB2 level: 1.3 pg
